melting point | Structure (SMILES)
116 to 117 °C | CC1(C)CC(=C(c2ccccc2)c2ccc(OCCOCCO)cc2)CC(C)(C)C1 [Example 4, 2-{[2-({4-[Phenyl(3,3,5,5-tetramethylcyclohexylidene)methyl]phenyl}oxy)ethyl]oxy}ethanol]
100 to 101 °C | CC1(C)CC(=C(c2ccc(F)cc2)c2ccc(OCC#N)cc2)CC(C)(C)C1 [Example 7, ({4-[(4-Fluorophenyl)(3,3,5,5-tetramethylcyclohexylidene)methyl]phenyl}oxy)acetonitrile]
131 to 132 °C | CC1(C)CC(=C(c2ccccc2)c2ccc(OCCO)cc2)CC(C)(C)C1 [Example 3, 2-({4-[Phenyl(3,3,5,5-tetramethylcyclohexylidene)methyl]phenyl}oxy)ethanol]

Reference: patent US7723393B2, “Cycloalkylidene compounds as selective estrogen receptor modulators” (GlaxoSmithKline LLC, priority 2005, dated 2010)
